Data taken from USRE42961E1, “Use of autonomic nervous system neurotransmitters inhibition and atrial parasympathetic fibers ablation for the treatment of atrial arrhythmias and to preserve drug effects” (St. Jude Medical, Atrial Fibrillation Division, Inc., priority 2000, dated 2011).
Values joined by “and” are separate entries in the source; they are usually repeats but may differ in a detail not shown here. Identical values can stand only once.

Columns and labels:
[1] = tested on: common human atrial flutter; conditions: cited from earlier work
atrial flutter circuit = test: Canine Y-shaped lesion model of sustained stable atrial flutter; reset-response measurement of cycle length, refractory period and excitable gap during neurotransmitter infusion with or without sotalol; type: in vivo, dog
Method: In a group of 13 open chest anaesthetised dogs, atrial flutter model was produced during baseline conditions around the tricuspid valve using a Y-shaped lesion in the intercaval area extending to the right atrial appendage. Atrial flutter was induced at the shortest effective refractory period site using fast pacing stimulation (S1S1) of 100-150 ms. This manoeuvre was repeated as much as necessary with more damage in the Y-shaped lesion model to achieve a sustained stable atrial flutter (>10 min) during the baseline conditions. In order to determine the excitable gap duration and composition during this sustained and stable atrial flutter, a diastole was scanned with a single premature extrastimulus, S1S2 (S1S2=]refractory period, flutter cycle length[) to define the atrial flutter circuit composition and duration (flutter cycle length=refractory period+excitable gap). Atrial flutter cycle length, atrial effective refractory period and duration of the excitable gap were then determined. Measures were repeated during a constant infusion into the right coronary artery of norepinephrine (15 μg/min) and acetylcholine (2 μg/min) allowing 15 min for recovery from norepinephrine effects. The effects of norepinephrine and acetylcholine at a constant plasma level of d-sotalol or d,l-sotalol (0.8 mg/kg+0.4 mg/kg/hr) were also studied in 2 different groups of chloralose anaesthetised dogs on the same electrophysiological parameters described above.
Atrial Flutter protocol: All experiments described were in accordance with institutional guidelines for animal experimentation. Fourteen mongrel dogs of either sex, weight 29-45 kg, were studied in the post-absorptive state. General anaesthesia was induced with sodium thiopental (25 mg/kg iv.) and maintained with chloralose (80 mg/kg iv. bolus supplemented by 20 mg/kg/hr maximum as needed). The dogs were intubated and ventilated (Harvard pump) with room air (10 breaths/min, tidal volume to achieve a maximum inspiratory pressure of 20 cm water) to maintain arterial pH 7.35-7.45 and PaO2>80 mm Hg. Arterial and venous cannulae were inserted in the left femoral artery and vein by direct cut down for blood pressure monitoring and drug administration, respectively. An additional venous cannulae was inserted in the right femoral vein or in the right internal jugular vein for blood sampling. Muscular relaxation was then induced with gallamine triethiodide (Flaxedil 100) 3 mg/kg intravenously. A right thoracotomy was performed via the fourth or fifth intercostal space and the pericardium was incised to provide access to the vena cava and the right atrium. […] A second line, extending from the first two-thirds of the way toward the tip of the right atrial appendage and parallel to 1-2 cm above the atrioventricular groove, was similarly incised and sewn over. Five close (2-4 mm) bipolar epicardial silver electrodes (insulated except at the tip) for stimulating and/or recording were sewn around the base of the right atrium within 1 cm of the tricuspid annulus. Three were positioned on the anterior surface and two on the posterior surface (Derakhchan K, et al., 1994). An arterial cannula was inserted in the right coronary artery for neurotransmitter infusion.
Measurement of electrophysiologic parameters: A single lead (II) surface electrocardiogram, atrial electrograms from each of the 5 bipolar electrodes, and the femoral arterial pressure were monitored and recorded using a Nihon Kohden polygraph (Model RM6008). Data were also stored on a Hewlett-Packard tape recorder. Atrial flutter was induced by burst stimulation (20-30 beats at basic cycle length <100 ms). During stable flutter (cycle length variation <10 ms), a premature stimulus was introduced at the site located on this re-entry circuit after every 20th spontaneous beat (T) in 2 ms decrements beginning at coupling intervals equal to the cycle length of this atrial tachycardia. […]

atrial fibrillation = test: Canine atrial fibrillation model with vagal and stellar ganglion denervation/stimulation (ERP duration and dispersion, conduction velocity, wavelength, AF duration); type: in vivo, dog; conditions: vagal stimulation in the presence of class III drug therapy
Excerpt: In a group of 14 anaesthetised open chest dogs, atrial fibrillation was induced by fast pacing and up to 10 attempts of arrhythmia initiations during baseline condition, vagal denervation, right and left vagal stimulation #1 (1 Hz, 0.1 ms), right and left stellar ganglions denervation, right and left vagal stimulation #2 (1 Hz, 0.1 ms), right and left stellar ganglions stimulation (10 Hz, 2 ms), and right and left vagal stimulation (1 Hz, 0.1 ms) associated with right and left stellar ganglions stimulation (10 Hz, 2 ms). Under the same conditions described above, the effective refractory period duration and dispersion (at S1S1=200 ms), the conduction velocity and the wavelength are determined. Atrial fibrillation occurrence was evaluated by the mean duration of 10 atrial fibrillation episodes at baseline (for a group of animals when none of the 10 atrial fibrillation episodes at baseline were lasting more than 3 minutes) and following each of the conditions described above. […]
Activation Mapping: Five thin plastic sheets containing 112 bipolar electrodes with 1 mm interpolar and 6 mm interelectrode distances were sewn into position on atrial epicardial surface. […] Each electrogram was analyzed with computer-determined peak-amplitude criteria and was reviewed manually. […] Isochrone maps and activation times for each activation were recorded by the use of IBM ink jet printer. […]

atrial flutter = conditions: intravenous atropine and propranolol together; supine or upright position; cited from earlier work
[2] = d,l-sotalol group, 7 dogs, NE 15 μg/min, ACh 2 μg/min into right coronary artery, d,l-sotalol 0.8 mg/kg+0.4 mg/kg/hr
[3] = d-sotalol group, 6 dogs, NE 15 μg/min, ACh 2 μg/min into right coronary artery, d-sotalol 0.8 mg/kg+0.4 mg/kg/hr

## CC[N+](C)(C)c1cccc(O)c1 [edrophonium]
[1]
  effect on monophasic atrial action potential duration or atrial flutter cycle length: no significant effect

## NC[C@H](O)c1ccc(O)c(O)c1 [NE, norepinephrine]
Atrial flutter circuit; [2]
  Atrial Effective Refractory Period (AERP), mean: 93 ± 7 ms and 93.0000 ms and 93.0 ms
  Atrial Flutter Cycle Length (AF1CL), mean: 132 ± 8 ms and 131.7500 ms and 131.8 ms
Atrial flutter circuit; [3]
  Atrial Flutter Cycle Length (AF1CL), mean: 133 ± 12 ms and 133.0000 ms and 133.0 ms
Atrial flutter circuit; in the presence of d-sotalol
  reversal of d-sotalol effects on atrial flutter cycle length and effective refractory period duration: significantly reversed
Atrial flutter circuit; infusion alone, d-sotalol group, 6 animals
  effect on effective refractory period duration: significantly shortened
Atrial flutter circuit; neurotransmitter infusion, acetylcholine>>norepinephrine
  occurrence of the initiation of atrial flutter: significantly increased

## CC(=O)OCC[N+](C)(C)C [ACh, acetylcholine]
Atrial flutter circuit; [2]
  Atrial Effective Refractory Period (AERP), mean: 64 ± 4 ms and 63.6000 ms and 63.6 ms
  Atrial Flutter Cycle Length (AF1CL), mean: 119 ± 17 ms and 119.0000 ms and 119.0 ms
Atrial flutter circuit; [3]
  Atrial Flutter Cycle Length (AF1CL), mean: 123 ± 15 ms and 122.6667 ms and 122.7 ms
  Effective Refractory Period duration (ERPdur), mean: 65 ± 5 ms and 64.8000 ms and 64.8 ms
  Excitable Gap duration (EGdur), mean: 48 ± 16 ms and 47.6000 ms and 47.6 ms

## CC(C)NCC(O)c1ccc(NS(C)(=O)=O)cc1 (racemic) [d,1-S, d,l-Sotalol]
Atrial fibrillation
  antiarrhythmic therapeutic effects under vagal stimulation: significantly and markedly reversed
Atrial flutter circuit; [2]
  Atrial Flutter Cycle Length (AF1CL), mean: 143.0 ms

## CN1[C@@H]2CC[C@H]1C[C@@H](OC(=O)C(CO)c1ccccc1)C2 (stereo partly shown) [atropine]
Atrial flutter
  effect on atrial flutter cycle length: did not change

## CC(C)NCC(O)COc1cccc2ccccc12 (stereo not shown) [propranolol]
Atrial flutter
  effect on atrial flutter cycle length: did not change
